Common to all, as to assay type: cell-based
The subject of experiment [1] is MCF-10A (normal breast) cell line. As to the kind of experiment: MTT growth inhibition assay, MCF10A. Conditions: MCF10A normal breast cells, 72 h, ± standard error, read-out: Growth Inhibition Concentration, GI50. As for the experimental part:
(§1) The Schiff bases and their organotin(IV) compounds were screened for in vitro cytotoxicity against a panel of 12 cancer cell lines: EJ-28 (muscle invasive bladder), RT-112 (minimum-invasive bladder), HT29 (colon), U87 and SJ-G2 (glioblastoma), MCF-7 (breast), A2780 (ovarian), H460 (lung), A431 (skin), DU145 (prostate), BE2-C (neuroblastoma), MIA (pancreatic) and one normal breast cell line (MCF-10A) using the MTT metabolic assay (Figure 6). After 72 h of incubation, a dose-dependent […] effect towards the cancer cell lines was measured at very low micromolar (µM) concentrations of the compounds. The growth inhibition concentration of the Schiff bases and their organotin(IV) compounds required to inhibit 50% cell proliferation relative to the cells that were treated with DMSO (control) are given in Table 2. The stability of these compounds was assessed in DMSO as well as in a mixture of DMSO-H2O. The absorbance obtained from UV-vis spectroscopy analysis was monitored for 72 h, and an unchanged pattern in the spectra was indicative that the compounds were stable in both the solvent systems tested.
(§2) For HT29 (colon), U87 and SJ-G2 (glioblastoma), MCF-7 (breast), A2780 (ovarian), H460 (lung), A431 (skin), Du145 (prostate), BE2-C (neuroblastoma), MIA (pancreas) cell lines and one normal breast cell line, MCF-10A (normal breast), the MTT assays were performed using the following method:
(§3) Stock solutions were prepared as follows and stored at −20 °C: Trial compounds were stored as 10 mM solutions in DMSO. All cell lines were cultured in a humidified atmosphere 5% CO2 at 37 °C. The cancer cell lines were maintained in Dulbecco’s modified Eagle’s medium (DMEM) (Trace Biosciences) supplemented with 10% foetal bovine serum, 10 mM sodium bicarbonate, penicillin (100 IU/mL), streptomycin (100 μg/mL) and glutamine (4 mM). The normal cell line, MCF-10A was cultured in DMEM:F12 (1:1) cell culture media, 5% heat inactivated horse serum, supplemented with penicillin (50 IU/mL), streptomycin (50 μg/mL), 20mM Hepes, L-glutamine (2 mM), epidermal growth factor (20 ng/mL), hydrocortisone (500 ng/mL), cholera toxin (100 ng/mL) and insulin (10 μg/mL).
(§4) Cells in logarithmic growth were transferred to 96-well plates. Cytotoxicity was determined by plating cells in duplicate in 100 μL medium at a density of 2500–4000 cells/well. On day 0 (24 h after plating), when the cells were in logarithmic growth, 100 μL medium, with or without the test agent, was added to each well. After 72 h drug exposure, growth inhibitory effects were evaluated using the MTT (3-[4,5-dimethylthiazol-2-yl]-2,5-diphenyltetrazolium bromide) assay and absorbance read at 540 nm. Percentage growth inhibition was determined at a fixed drug concentration of 25 μM. A value of 100% was indicative of complete cell growth inhibition. Those analogues showing appreciable percentage growth inhibition underwent further dose-response analysis allowing for the calculation of a GI50 value. This value is the drug concentration at which cell growth is 50% inhibited based on the difference between the optical density values on day 0 and those at the end of drug exposure.
Background: Tetrazolium assays rely on reduction of a dye to a coloured formazan, in cell work by metabolically active cells.

Experiment [2] concerns HT29 (colon) cancer cells. As to the kind of experiment: MTT growth inhibition assay, HT29. Conditions: 72 h, ± standard error, read-out: Growth Inhibition Concentration, GI50. As for the experimental part:
as §1, §2, §3, §4

The subject of experiment [3] is Du145 (prostate) cancer cells. As to the kind of experiment: MTT growth inhibition assay, Du145. Conditions: 72 h, ± standard error, read-out: Growth Inhibition Concentration, GI50. As for the experimental part: as §1, §2, §3, §4

Consider “Diphenyltin(IV) [Ph2Sn(S4MoVa), Diphenyltin(IV) [S-4-Methybenzyl-β-N-(2-hydroxy-3-methoxybenzylmethylene) dithiocarbazate]]”, for which the values for the GI50 in experiment [1], in experiment [2] and in experiment [3] were 1100 ± 370 nM, 870 ± 220 nM and 1500 ± 310 nM, respectively.
For “Diphenyltin(IV) [Ph2Sn(S2MoVa), Diphenyltin(IV) [S-2-Methybenzyl-β-N-(2-hydroxy-3-methoxybenzylmethylene) dithiocarbazate]]” the same measures were 1200 ± 300 nM, 1800 ± 130 nM and 1700 ± 70 nM.

(Values after PMC6413231, “o-Vanillin Derived Schiff Bases and Their Organotin(IV) Compounds: Synthesis, Structural Characterisation, In-Silico Studies and Cytotoxicity” (International Journal of Molecular Sciences, 2019).)
